According to patent publication US11873354B2, “Photobase generator, compound, photoreactive composition, and reaction product” (Tokyo University of Science Foundation, priority 2019, dated 2024):
Entries after “also recorded” stand apart in the source; their conditions may differ.

Key:
Assay type in all cases: physicochemical
[1] = Color reaction experiment of phenol red (basicity, UV-Vis); conditions: for peak showing basicity near 570 nm: methanol solution with phenol red, UV-Vis
Procedure: Next, it was confirmed that 2-methyl-2-imidazoline (2MI), which is generated by light irradiation to the compound (1)-2, is a stronger base than cyclohexylamine (CyA), which is an aliphatic amine, by a color reaction experiment of phenol red. First, 2MI, CyA and diazabicycloundecene (DBU) were prepared as bases, and 1.5 mL of methanol solution, in which the concentration was prepared at 2.0×10^−5 mol/L, was added to 1.5 mL of a methanol solution in which each base was dissolved. The basicity of each base was evaluated by measuring the UV-Vis spectrum of each of the solution.

[2] = Preservation stability of liquid mixture with base-reactive compound (9)-301 (Test Examples 3, 4); conditions: with (9)-301 in methanol, dark place, 25° C., 6 days
Procedure: A base-reactive compound (9)-301 (0.10 g) as shown below, the compound (1)-1 (0.012 g, 8 molar % with respect to the methoxy group in the base-reactive compound), and methanol (0.51 g) were added in a glass bottle to prepare a liquid mixture.
The liquid mixture was stored in a dark place at 25° C. for 6 days. After storage for 6 days, the glass bottle was shaken or inverted to confirm that the liquid mixture in the glass bottle was liquid.
The base-reactive compound (9)-301 (0.10 g), the compound (2)-1 (0.013 g, 8 molar % with respect to the methoxy group in the base-reactive compound), and methanol (0.50 g) were added in a glass bottle to prepare a liquid mixture.
The liquid mixture was stored in a dark place at 25° C. for 4 days. After storage for 4 days, the glass bottle was shaken or inverted to confirm that the liquid mixture in the glass bottle was gelled.

[3] = Absorbance of compound in methanol under light irradiation (Test Examples 1, 2, 7, 8); conditions: methanol solution; for molar absorption coefficient ε313: 313 nm; for molar absorption coefficient ε365: 365 nm
Procedure: (§1) The above-obtained compound (1)-1 was dissolved in methanol so as to have a concentration of 2.5×10^−5 mol/L. Then, using an LED lamp, the illuminance was set to 50 mW/cm^2, the exposure dose was set to 0, 50, 150 or 300 mJ/cm^2, and the obtained methanol solution was irradiated with light having a wavelength of 365 nm. Then, the absorbance of the compound (1)-1 was measured.
as §1, with “a mercury xenon” for “an LED”, “100” for “150”, “280” for “300”, “313” for “365”
as §1, with “(1)-3” for “(1)-1”, “1.5×10^−5” for “2.5×10^−5”, “100, 200” for “150”, “350” for “300”, “measured. In Test Example 7, the molar absorption coefficient was ε365=1.2×10^4 L/(mol cm).” for “measured.”
The above-obtained compound (1)-3 was dissolved in methanol so as to have a concentration of 1.5×10^−5 mol/L. Then, using a mercury xenon lamp, the illuminance was set to 10 mW/cm^2, the exposure dose was set to 0, 50, 100, 200 or 350 mJ/cm^2, and the obtained methanol solution was irradiated with light having a wavelength of 313 nm. Then, the absorbance of the compound (1)-3 was measured. In Test Example 8, the molar absorption coefficient was ε313=2.8×10^4 L/(mol cm).

[4] = pH test paper after irradiation of aqueous solution; conditions: 365 nm
[5] = Solubility test; conditions: chloroform, dimethyl sulfoxide and the like; compared with compound (1)-2

| SMILES | peak showing basicity near 570 nm [1] | molar absorption coefficient ε313 [3] | molar absorption coefficient ε365 [3] | other results |
| --- | --- | --- | --- | --- |
| CC1=NCCN1 [Compound 2MI, 2-methyl-2-imidazoline] | a peak showing basicity appeared near 570 nm |  |  | relative basicity ([1]; from peak intensity near 570 nm): weaker than that of DBU; also recorded: stronger than that of CyA |
| CN(C)C(=NC(=O)/C=C/c1ccccc1O)N(C)C [Compound (1)-1] |  | 16000 L/mol/cm | 3100 L/mol/cm | state of liquid mixture after storage [2]: liquid |
| CC1=NCCN1C(=O)/C=C/c1ccccc1O [Compound (1)-2] |  |  |  | pH test paper after light irradiation [4]: discolored to the basic side |
| CC1=NCCN1C(=O)/C=C/c1cc(C(C)(C)C)cc(C(C)(C)C)c1O [Compound (1)-3] |  | 28000 L/mol/cm | 12000 L/mol/cm | solubility [5]: improved in solubility |
| NC1CCCCC1 [CyA, cyclohexylamine] | no peak showing basicity appeared near 570 nm |  |  |  |
| C1CCC2=NCCCN2CC1 [DBU, diazabicycloundecene] | a peak showing basicity appeared near 570 nm |  |  |  |
